Laboratory results: patent publication US20070179161A1, “Pyrazolopyrimidine compounds and their use in medicine” (VERNALIS (CAMBRIDGE) LIMITED., priority 2003, published 2007)
pIC50: −log10 of the molar value. Where two headings read alike, the source gives them in different places.

How the values were obtained:
Type in all cases: biochemical
PDK1 enzyme = biological target: T1, PDK1 enzyme (Homo sapiens, UniProt O15530); assay: PDK1 kinase inhibition assay (33P phosphorylation of synthetic peptide, filter plate); conditions: 0.01 mM ATP, 60 min at 30° C.; for pIC50: read-out: PDK1 IC50
T1 sequence (O15530 1-556): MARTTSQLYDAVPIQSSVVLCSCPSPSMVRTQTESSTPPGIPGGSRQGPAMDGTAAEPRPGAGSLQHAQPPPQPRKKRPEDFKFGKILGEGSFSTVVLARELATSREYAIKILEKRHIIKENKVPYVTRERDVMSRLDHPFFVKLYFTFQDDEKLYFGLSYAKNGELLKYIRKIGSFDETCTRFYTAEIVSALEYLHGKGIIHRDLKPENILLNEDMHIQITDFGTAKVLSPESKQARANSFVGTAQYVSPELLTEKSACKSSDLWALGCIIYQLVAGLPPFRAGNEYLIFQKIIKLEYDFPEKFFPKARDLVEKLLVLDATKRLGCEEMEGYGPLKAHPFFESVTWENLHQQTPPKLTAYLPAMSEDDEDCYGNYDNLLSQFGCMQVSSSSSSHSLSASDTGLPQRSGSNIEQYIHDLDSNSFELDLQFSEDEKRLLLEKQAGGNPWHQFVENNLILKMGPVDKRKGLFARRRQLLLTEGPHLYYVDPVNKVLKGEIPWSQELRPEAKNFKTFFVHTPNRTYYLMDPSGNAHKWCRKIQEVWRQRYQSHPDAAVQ
Procedure: (§1) The assay mixture containing the inhibitor and PDK1 enzyme was mixed together in a microtiter plate in a final volume of 50 μl and incubated for 60 min at 30° C. The assay mixture contained 0.01 mM unlabeled ATP, 0.01 μCi/μl ^33P-γ-ATP, 0.075 mM peptide, 0.1 mg/ml BSA, 7.5 mM magnesium acetate, 0.05M Tris.HCl, pH 7.5, 0.5% 2-mercaptoethanol. The reaction was stopped by adding 50 μl of 50 mM phosphoric acid. 90 μl of the mixture were transferred to a pre-wetted 96-well Multiscreen MAPHNOB filtration plate (Millipore) and filtered on a vacuum manifold. […] The filtration plate was dried for 10 min at 65° C., scintillant added and phosphorylated peptide quantified in a scintillation counter (Trilux, PerkinElmer)

GST-Chk1 enzyme = biological target: T2, GST-Chk1 enzyme (Homo sapiens, UniProt O14757); assay: Chk1 kinase inhibition assay (33P phosphorylation of Chktide, filter plate); conditions: 0.01 mM ATP, 11 nM GST-Chk1, 40 minutes at 30° C.; for pIC50: read-out: Chk1 IC50
T2 sequence (O14757 1-476): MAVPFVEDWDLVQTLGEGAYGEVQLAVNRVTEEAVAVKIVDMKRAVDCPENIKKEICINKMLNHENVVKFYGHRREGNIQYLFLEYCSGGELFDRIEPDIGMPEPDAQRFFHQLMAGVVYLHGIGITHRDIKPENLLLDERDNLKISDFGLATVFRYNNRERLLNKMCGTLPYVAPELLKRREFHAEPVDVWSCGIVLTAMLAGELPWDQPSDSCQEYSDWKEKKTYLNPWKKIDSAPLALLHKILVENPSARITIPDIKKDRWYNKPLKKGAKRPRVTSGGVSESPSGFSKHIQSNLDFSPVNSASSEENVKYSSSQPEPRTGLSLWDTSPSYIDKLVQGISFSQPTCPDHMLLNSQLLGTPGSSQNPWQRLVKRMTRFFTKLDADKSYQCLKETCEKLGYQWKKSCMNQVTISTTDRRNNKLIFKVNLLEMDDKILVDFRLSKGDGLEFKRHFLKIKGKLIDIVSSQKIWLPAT
Procedure: The assay mixture containing the inhibitor and Chk1 enzyme was mixed together in a microtiter plate in a final volume of 50 μl and incubated for 40 minutes at 30° C.
The reaction was stopped by adding 50 μl of 50 mM phosphoric acid. 90 μl of the mixture was transferred to a pre-wetted 96-well Multiscreen MAPHNOB filtration plate (Millipore) and filtered on a vacuum manifold. […] The filtration plate was dried for 10 min at 65° C., scintillant added and phosphorylated peptide quantified in a scintillation counter (Trilux, PerkinElmer)

[1] = biological target: CDK-2 enzyme, complexed with cyclin A (Homo sapiens, UniProt P24941); assay: CDK2 enzyme inhibition assay (33P phosphorylation of peptide […], filter plate); conditions: CDK-2/cyclin A, 0.1 mM ATP, 40 min at 30° C.
Procedure: as §1, with “and CDK-2 enzyme, complexed with cyclin A (0.4 U/ml)” for “and PDK1 enzyme”, “for 40” for “for 60”, “contained 0.1” for “contained 0.01”, “^33P-γ-ATP, 0.03” for “^33P-γ-ATP, 0.075”, “acetate, 50 mM HEPES-NaOH,” for “acetate, 0.05M Tris.HCl,”, “pH 7.5.” for “pH 7.5, 0.5% 2-mercaptoethanol.”
HEPES is N-[2-Hydroxyethyl]piperazine-N′-[2-ethanesulfonic acid] BSA is bovine serum albumin.

Compound	pIC50 (PDK1 enzyme)	pIC50 [1]	also measured
CC(C)c1cnn2c(Nc3ccc(S(=O)(=O)N(C)C)cc3)cc(N[C@H]3CC[C@@H](N)CC3)nc12 [Example 116]	6.27		pIC50 (GST-Chk1 enzyme): 5.66
CC(C)c1cnn2c(Nc3ccc(S(=O)(=O)N(C)C)cc3)cc(Cl)nc12 [Example 27]		6.62	
CC(C)c1cnn2c(Nc3ccc(S(=O)(=O)NCCN(C)C)cc3)cc(OC3CCCCC3)nc12 [Example 91]	< 3.70	6.06	pIC50 (GST-Chk1 enzyme): 5.27
CN(C)S(=O)(=O)c1ccc(Nc2cc(N[C@H]3CC[C@H](N)CC3)nc3c(C#N)cnn23)cc1 [Example 199]	5.87	8.15	pIC50 (GST-Chk1 enzyme): 6.48
CC(C)c1cnn2c(Nc3ccc(S(=O)(=O)N(C)C)cc3)cc(NC3CCN(C)CC3)nc12 [Example 69]	4.50	6.74	pIC50 (GST-Chk1 enzyme): 4.72
NC(=O)c1ccc(Nc2cc(N[C@H]3CC[C@@H](N)CC3)nc3c(Br)cnn23)cc1 [Example 165]	5.92	7.59	pIC50 (GST-Chk1 enzyme): 6.21
Clc1cccc(Nc2cc(Cl)nc3c(Br)cnn23)c1 [Example 160]		6.97	
N[C@H]1CC[C@H](Nc2cc(Nc3ccc(Oc4ccc(F)cc4)cc3)n3ncc(Cl)c3n2)CC1 [Example 190]		7.34	
Brc1cccc(-c2cc(NCc3ccncc3)n3nccc3n2)c1 [Example 3]	4.46		pIC50 (GST-Chk1 enzyme): 4.53
CCc1cnn2c(Nc3ccc(S(=O)(=O)N4CCCC4)cc3)cc(Cl)nc12 [Example 142]	< 3.70	7.18	
N[C@H]1CC[C@H](Nc2cc(Nc3ccc(Oc4cccnc4)cc3)n3ncc(Cl)c3n2)CC1 [Example 189]		7.55	
CS(=O)(=O)c1ccc(Nc2ccnc3ccnn23)cc1 [Example 19]	< 3.70	4.98	
CN(C)S(=O)(=O)c1ccc(Nc2cc(N[C@H]3CC[C@H](N)CC3)nc3ccnn23)cc1 [Example 169]	5.47	7.01	
CC(C)c1cnn2c(Nc3ccc(S(=O)(=O)N(C)C)cc3)cc(CN3CCC(O)CC3)nc12 [Example 170]	< 3.70	5.74	
CC(C)c1cnn2c(Nc3ccc(S(=O)(=O)N(C)C)cc3)cc(N[C@H]3CC[C@H](N)CC3)nc12 [Example 30, 3-isopropyl-5-(trans-4-aminocyclohexylamino)-7-(4-(N,N-dimethylsulphonamido)phenylamino)pyrazolo[1,5-a]pyrimidine]	4.70		pIC50 (GST-Chk1 enzyme): 5.26
CC(C)c1cnn2c(Nc3ccc(S(=O)(=O)N(C)C)cc3)cc(C(=O)N3CCC(CN)CC3)nc12 [Example 131]		5.03	
Clc1cc(NCc2ccncc2)n2ncc(Br)c2n1 [Example 161]		6.64	
CNC(=O)C1CCN(C(=O)c2cc(Nc3ccc(S(=O)(=O)N(C)C)cc3)n3ncc(C(C)C)c3n2)CC1 [Example 133]		5.29	
N[C@H]1CC[C@H](Nc2cc(Nc3ccc(S(=O)(=O)c4ccccc4)cc3)n3ncc(Br)c3n2)CC1 [Example 137]	5.98		pIC50 (GST-Chk1 enzyme): 6.14
CC(C)c1cnn2c(Nc3ccc(S(=O)(=O)N(C)CCN(C)C)cc3)cc(Cl)nc12 [Example 68]		7.28	
CC(C)c1cnn2c(NC3CCN(S(=O)(=O)C(C)C)CC3)cc(Cl)nc12 [Example 159]		5.93	
CC(C)c1cnn2c(Nc3ccc(S(=O)(=O)N(C)C)cc3)cc(N[C@H]3CCCC[C@H]3N)nc12 [Example 132]	4.98	5.44	

Compound	pIC50 (PDK1 enzyme)	pIC50 [1]	also measured
CNCCNC(=O)c1cc(Nc2ccc(S(=O)(=O)N(C)C)cc2)n2ncc(C(C)C)c2n1 [Example 155]		6.85	pIC50 (GST-Chk1 enzyme): 4.28
O=S(=O)(c1ccc(Nc2cc(Cl)nc3c(Cl)cnn23)cc1)c1cccs1 [Example 188]		7.05	
CN(C)S(=O)(=O)c1ccc(Nc2cc(O[C@@H]3CCNC3)nc3c(Cl)cnn23)cc1 [Example 195]		6.62	pIC50 (GST-Chk1 enzyme): 5.11
CC(C)c1cnn2c(Nc3ccc(S(=O)(=O)N(C)C)cc3)cc(C(=O)N3CCC(N)CC3)nc12 [Example 123]		5.87	pIC50 (GST-Chk1 enzyme): < 3.70
O=S(=O)(c1ccccc1)c1ccc(Nc2cc(Cl)nc3c(Br)cnn23)cc1 [Example 136]	4.80	6.69	
CN(C)S(=O)(=O)c1ccc(Nc2cc(O[C@H]3CC[C@H](N)CC3)nc3c(Br)cnn23)cc1 [Example 158]		8.30	
CC(C)c1cnn2c(Nc3ccc(S(=O)(=O)N(C)C)cc3)cc(CO)nc12 [Example 146]		6.26	
CN1CCN(S(=O)(=O)c2ccc(Nc3cc(Cl)nc4c(Br)cnn34)cc2)CC1 [Example 139]	< 4.30	6.75	
N[C@H]1CC[C@@H](Nc2cc(Nc3ccc(S(=O)(=O)Nc4nccs4)cc3)n3ncc(Br)c3n2)CC1 [Example 177]	6.18		
CS(=O)(=O)c1ccc(Nc2cc(Cl)nc3ccnn23)cc1 [Example 15]			IC50 (PDK1 enzyme; PDK1 IC50(μM)): > 200 µM; IC50 (GST-Chk1 enzyme; Chk1 IC50(μM)): > 200 µM
CC(C)c1cnn2c(Nc3ccc(S(=O)(=O)N(C)C)cc3)cc(C(=O)N3CCC(N4CCCC4)CC3)nc12 [Example 130]		4.92	
CC(C)c1cnn2c(NC3CCN(C(=O)OC(C)(C)C)CC3)cc(Cl)nc12 [Example 153]		5.46	
CCc1cnn2c(Nc3ccc(S(=O)(=O)Nc4nccs4)cc3)cc(Cl)nc12 [Example 151]	4.42	6.96	
CS(=O)(=O)c1ccc(Nc2cc(Cl)nc3c(Br)cnn23)cc1 [Example 144]	< 4.30	6.64	
CN(C)S(=O)(=O)c1ccc(Nc2cc(N[C@H]3CC[C@@H](N)CC3)nc3c(S(C)(=O)=O)cnn23)cc1 [Example 200]		4.95	
CC(C)c1cnn2c(Nc3ccc(S(N)(=O)=O)cc3)cc(N[C@H]3CC[C@H](N)CC3)nc12 [Example 134]	5.35	7.59	
CCc1cnn2c(Nc3ccc(S(=O)(=O)N(C)C)cc3)cc(NC3CC(C)(C)NC(C)(C)C3)nc12 [Example 175]	4.89	4.65	
CC1(C)CC(Nc2cc(Nc3ccc(S(=O)(=O)N4CCCC4)cc3)n3ncc(Br)c3n2)CC(C)(C)N1 [Example 179]	5.34	4.62	
O=S(=O)(c1ccc(Nc2cc(N[C@H]3CC[C@H](O)CC3)nc3c(Br)cnn23)cc1)N1CCCC1 [Example 176]	5.49	6.74	
O=S(=O)(c1ccccc1)c1ccc(Nc2cc(N[C@H]3CC[C@H](O)CC3)nc3c(Br)cnn23)cc1 [Example 182]	5.52	6.61	
CCc1cnn2c(Nc3ccc(C(=O)NCCN(CC)CC)cc3)cc(Cl)nc12 [Example 152]		6.10	pIC50 (GST-Chk1 enzyme): 4.49
CC(C)c1cnn2c(Nc3ccc(S(=O)(=O)N(C)C)cc3)cc(N3CCC(N)C3)nc12 (stereo not drawn) [Example 129]		5.70	
